# Molecular target: T1, human calcium-sensing receptor (CaSR) (Homo sapiens, UniProt P41180)
# T1 construct: expressed in transfected cells
# T1 sequence (P41180 20-1078): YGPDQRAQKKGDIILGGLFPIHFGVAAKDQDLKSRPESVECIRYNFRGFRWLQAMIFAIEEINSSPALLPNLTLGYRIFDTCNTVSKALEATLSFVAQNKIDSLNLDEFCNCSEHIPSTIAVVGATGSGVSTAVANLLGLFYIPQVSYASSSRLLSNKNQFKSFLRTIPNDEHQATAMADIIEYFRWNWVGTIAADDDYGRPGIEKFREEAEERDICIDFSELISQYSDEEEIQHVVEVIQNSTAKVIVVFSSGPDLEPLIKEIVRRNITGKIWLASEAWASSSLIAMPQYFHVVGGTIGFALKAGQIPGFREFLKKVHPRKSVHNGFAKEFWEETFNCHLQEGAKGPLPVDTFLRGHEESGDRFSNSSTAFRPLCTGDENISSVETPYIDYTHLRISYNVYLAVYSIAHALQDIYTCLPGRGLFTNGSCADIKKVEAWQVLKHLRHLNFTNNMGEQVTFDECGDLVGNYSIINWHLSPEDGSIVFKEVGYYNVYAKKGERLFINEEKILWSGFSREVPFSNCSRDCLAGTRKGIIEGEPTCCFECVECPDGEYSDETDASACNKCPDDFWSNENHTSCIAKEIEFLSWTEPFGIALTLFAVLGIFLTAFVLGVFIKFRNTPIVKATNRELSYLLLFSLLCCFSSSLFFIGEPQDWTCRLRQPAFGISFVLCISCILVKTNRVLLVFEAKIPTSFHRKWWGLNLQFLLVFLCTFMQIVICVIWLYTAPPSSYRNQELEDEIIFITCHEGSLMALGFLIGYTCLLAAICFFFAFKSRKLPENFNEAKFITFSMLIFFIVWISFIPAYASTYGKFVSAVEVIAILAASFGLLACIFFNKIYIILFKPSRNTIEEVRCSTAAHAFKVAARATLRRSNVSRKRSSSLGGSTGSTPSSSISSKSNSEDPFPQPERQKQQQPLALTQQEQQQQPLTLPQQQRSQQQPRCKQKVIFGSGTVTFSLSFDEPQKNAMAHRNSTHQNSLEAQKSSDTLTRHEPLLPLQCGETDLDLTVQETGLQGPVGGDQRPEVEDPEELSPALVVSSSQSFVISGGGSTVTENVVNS
# Assay: intracellular Ca assay, CaSR antagonist activity in HEK293/hCaSR cells
# Type: cell-based
# Conditions: Fura2-AM, inhibition of response to calcium chloride ligand solution, read-out: IC50 values according to the intracellular Ca assay (CaSR antagonist activity)
# Procedure, shortened: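 HEK293/hCaSR cells were loaded with Fura2-AM and pre-incubated with compound for 160 s at 37° C in HEPES buffer (pH 7.4, 0.8 mM CaCl2), then challenged with calcium ligand solution. Read-out was the peak 340/380 nm fluorescence ratio; inhibition is relative to no-compound (0%) and no-calcium-ligand (100%) controls.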
row,IC50 [nM],SMILES
1,≤ 300,"Cc1cc(S(=O)(=O)N(C)C[C@H](O)CNC(C)(C)CC2Cc3ccccc3C2)ccc1-c1cccc(CCC(=O)O)c1 [Exp. 3-178, (R)-3-(4′-(N-(3-(1-(2,3-dihydro-1H-inden-2-yl)-2-methylpropan-2-ylamino)-2-hydroxypropyl)-N-methylsulfamoyl) 2′-methylbiphenyl-3-yl)propionic acid]"
2,≤ 300,"CN(C[C@H](O)CNC(C)(C)CC1Cc2ccccc2C1)S(=O)(=O)c1cc(F)c(-c2cccc(CCC(=O)O)c2)cc1F [Exp. 3-180, (R)-3-(4′-(N-(3-(1-(2,3-dihydro-1H-inden-2-yl)-2-methylpropan-2-ylamino)-2-hydroxypropyl)-N-methylsulfamoyl)-2′,5′-difluorobiphenyl-3-yl)propionic acid]"
3,≤ 300,"CN(C[C@H](O)CNC(C)(C)CCCc1ccccc1)S(=O)(=O)c1ccc(-c2cccc(CCC(=O)O)c2)c(Cl)c1 [Exp. 3-185, (R)-3-(2′-chloro-4′-(N-(2-hydroxy-3-(2-methyl-5-phenylpentan-2-ylamino)propyl)-N-methylsulfamoyl)biphenyl-3-yl)propionic acid]"
4,≤ 300,"CCc1cc(-c2cccc(CCC(=O)O)c2)ccc1S(=O)(=O)N(C)C[C@H](O)CNC(C)(C)CCCc1ccccc1 [Exp. 3-187, (R)-3-(3′-ethyl-4′-(N-(2-hydroxy-3-(2-methyl-5-phenylpentan-2-ylamino)propyl)-N-methylsulfamoyl)biphenyl-3-yl)propionic acid]"
5,≤ 300,"CN(C[C@H](O)CNC(C)(C)CC1Cc2ccccc2C1)S(=O)(=O)c1cc(-c2ccc(F)c(C(=O)O)c2)cc(C(F)(F)F)c1 [Exp. 3-193, (R)-3′-(N-(3-(1-(2,3-dihydro-1H-inden-2-yl)-2-methylpropan-2-ylamino)-2-hydroxypropyl)-N-methylsulfamoyl)-4-fluoro-5′-(trifluoromethyl)biphenyl-3-carboxylic acid]"
6,≤ 300,"Cc1cc(-c2cc(C(F)(F)F)cc(S(=O)(=O)N(C)C[C@H](O)CNC(C)(C)CC3Cc4ccccc4C3)c2)ccc1C(=O)O [Exp. 3-197, (R)-3′-(N-(3-(1-(2,3-dihydro-1H-inden-2-yl)-2-methylpropan-2-ylamino)-2-hydroxypropyl)-N-methylsulfamoyl)-3-methyl-5′-(trifluoromethyl)biphenyl-4-carboxylic acid]"
7,≤ 300,"CN(C[C@H](O)CNC(C)(C)CC1Cc2ccccc2C1)S(=O)(=O)c1cccc(-c2cccc(C(=O)O)c2F)c1 [Exp. 3-201, (R)-3′-(N-(3-(1-(2,3-dihydro-1H-inden-2-yl)-2-methylpropan-2-ylamino)-2-hydroxypropyl)-N-methylsulfamoyl)-2-fluorobiphenyl-3-carboxylic acid]"
8,≤ 300,"CN(C[C@H](O)CNC(C)(C)CC1Cc2ccccc2C1)S(=O)(=O)c1ccc(-c2ccc(C(=O)O)c(Cl)c2)cc1C(F)(F)F [Exp. 3-213, (R)-3-chloro-4′-(N-(3-(1-(2,3-dihydro-1H-inden-2-yl)-2-methylpropan-2-ylamino)-2-hydroxypropyl)-N-methylsulfamoyl)-3′-(trifluoromethyl)biphenyl-4-carboxylic acid]"
9,≤ 300,"Cc1cc(C(=O)O)ccc1-c1cccc(S(=O)(=O)N(C)C[C@H](O)CNC(C)(C)CC2Cc3ccccc3C2)c1 [Exp. 3-220, (R)-3′-(N-(3-(1-(2,3-dihydro-1H-inden-2-yl)-2-methylpropan-2-ylamino)-2-hydroxypropyl)-N-methylsulfamoyl)-2-methylbiphenyl-4-carboxylic acid]"
10,≤ 300,"CN(C[C@H](O)CNC(C)(C)CC1Cc2ccccc2C1)S(=O)(=O)c1cccc(-c2ccc(OCC(=O)O)c(Cl)c2)c1 [Exp. 3-223, (R)-2-(3-chloro-3′-(N-(3-(1-(2,3-dihydro-1H-inden-2-yl)-2-methylpropan-2-ylamino)-2-hydroxypropyl)-N-methylsulfamoyl)biphenyl-4-yloxy)acetic acid]"
11,≤ 300,"CN(C[C@H](O)CNC(C)(C)CC1Cc2ccccc2C1)S(=O)(=O)c1cccc(-c2c(Cl)cc(C(=O)O)cc2Cl)c1 [Exp. 3-228, (R)-2,6-dichloro-3′-(N-(3-(1-(2,3-dihydro-1H-inden-2-yl)-2-methylpropan-2-ylamino)-2-hydroxypropyl)-N-methylsulfamoyl)biphenyl-4-carboxylic acid]"
12,≤ 300,"CN(C[C@H](O)CNC(C)(C)CC1Cc2ccccc2C1)S(=O)(=O)c1ccc(-c2ccc(C(=O)O)nc2)c(C(F)(F)F)c1 [Exp. 3-231, (R)-5-(4-(N-(3-(1-(2,3-dihydro-1H-inden-2-yl)-2-methylpropan-2-ylamino)-2-hydroxypropyl)-N-methylsulfamoyl)-2-(trifluoromethyl)phenyl)picolinic acid]"
13,≤ 300,"CCc1cc(-c2ccc(CCC(=O)O)cc2Cl)ccc1S(=O)(=O)N(C)C[C@H](O)CNC(C)(C)CC1Cc2ccccc2C1 [Exp. 5-16, (R)-3-(2-chloro-4′-(N-(3-(1-(2,3-dihydro-1H-inden-2-yl)-2-methylpropan-2-ylamino)-2-hydroxypropyl)-N-methylsulfamoyl)-3′-ethylbiphenyl-4-yl)propionic acid]"
14,≤ 300,"CN(C[C@H](O)CNC(C)(C)CC1Cc2ccccc2C1)S(=O)(=O)c1ccc(-c2cc(CCC(=O)O)ccc2F)cc1C(F)(F)F [Exp. 5-18, (R)-3-(4′-(N-(3-(1-(2,3-dihydro-1H-inden-2-yl)-2-methylpropan-2-ylamino)-2-hydroxypropyl)-N-methylsulfamoyl)-6-fluoro-3′-(trifluoromethyl)biphenyl-3-yl)propionic acid]"
15,≤ 300,"CCc1cc(-c2cc(CCC(=O)O)ccc2F)ccc1S(=O)(=O)N(C)C[C@H](O)CNC(C)(C)CC1Cc2ccccc2C1 [Exp. 5-21, (R)-3-(4′-(N-(3-(1-(2,3-dihydro-1H-inden-2-yl)-2-methylpropan-2-ylamino)-2-hydroxypropyl)-N-methylsulfamoyl)-3′-ethyl-6-fluorobiphenyl-3-yl)propionic acid]"
16,≤ 300,"CN(C[C@H](O)CNC(C)(C)CC1Cc2ccccc2C1)S(=O)(=O)c1ccc(-c2cc(CCC(=O)O)ccc2F)c(F)c1 [Exp. 5-23, (R)-3-(4′-(N-(3-(1-(2,3-dihydro-1H-inden-2-yl)-2-methylpropan-2-ylamino)-2-hydroxypropyl)-N-methylsulfamoyl)-2′,6-difluorobiphenyl-3-yl)propionic acid]"
17,≤ 300,"COc1ccc(-c2cc(S(=O)(=O)N(C)C[C@H](O)CNC(C)(C)CC3Cc4ccccc4C3)sc2Cl)cc1CCC(=O)O [Exp. 5-29, (R)-3-(5-(2-chloro-5-(N-(3-(1-(2,3-dihydro-1H-inden-2-yl)-2-methylpropan-2-ylamino)-2-hydroxypropyl)-N-methylsulfamoyl)thiophen-3-yl)-2-methoxyphenyl)propionic acid]"
18,≤ 300,"CCc1cc(-c2ccc(OC)c(CCC(=O)O)c2)ccc1S(=O)(=O)N(C)C[C@H](O)CNC(C)(C)CCCc1ccccc1 [Exp. 5-30, (R)-3-(3′-ethyl-4′-(N-(2-hydroxy-3-(2-methyl-5-phenylpentan-2-ylamino)propyl)-N-methylsulfamoyl)-4-methoxybiphenyl-3-yl)propionic acid]"
19,≤ 300,"CCc1cc(-c2ccc(CCC(=O)O)c(F)c2)ccc1S(=O)(=O)N(C)C[C@H](O)CNC(C)(C)CC1Cc2ccccc2C1 [Exp. 5-58, (R)-3-(4′-(N-(3-(1-(2,3-dihydro-1H-inden-2-yl)-2-methylpropan-2-ylamino)-2-hydroxypropyl)-N-methylsulfamoyl)-3′-ethyl-3-fluorobiphenyl-4-yl)propionic acid]"
20,≤ 300,"CN(C[C@H](O)CNC(C)(C)CC1Cc2ccccc2C1)S(=O)(=O)c1ccc(-c2ccc(CCC(=O)O)c(F)c2)c(Cl)c1 [Exp. 5-59, (R)-3-(2′-chloro-4′-(N-(3-(1-(2,3-dihydro-1H-inden-2-yl)-2-methylpropan-2-ylamino)-2-hydroxypropyl)-N-methylsulfamoyl)-3-fluorobiphenyl-4-yl)propionic acid]"
21,≤ 300,"CN(C[C@H](O)CNC(C)(C)CC1Cc2ccccc2C1)S(=O)(=O)c1ccc(-c2ccc(F)c(CCC(=O)O)c2)cc1C(F)(F)F [Exp. 5-62, (R)-3-(4′-(N-(3-(1-(2,3-dihydro-1H-inden-2-yl)-2-methylpropan-2-ylamino)-2-hydroxypropyl)-N-methylsulfamoyl)-4-fluoro-3′-(trifluoromethyl)biphenyl-3-yl)propionic acid]"
